Test results taken from patent publication US10517842B2, “Methods of modulating miRNA levels and compositions for use in the same” (Los Angeles Biomedical Research Institute at Harbor-UCLA …, priority 2017, dated 2019).

Experiments:
Assay type in all cases: cell-based, human
[1] = test system: 3′UTR of CDK2; test: 3′UTR luciferase reporter assay in LSMC; details: Tranilast 200 μM vs DMSO set as 1, 48 hrs before and 48 hrs after transfection, LSMC; P<0.05
[2] = test system: NF-Kb (p65) binding elements in the miR-200c promoter; test: CHIP assay, p65 binding in the miR-200c promoter in LSMC; details: Tranilast 200 μM, 48 hrs, percent input method
[3] = test system: NF-kB; test: NF-kB luciferase reporter assay in LSMC; details: Tranilast 200 μM, 48 hrs, vs DMSO set as 1
Description: The ratio of Firefly:Renilla was determined after treatment of Tranilast (200 μM) for 48 hrs and reported as relative luciferase activity as compared to DMSO which was independently set as 1. FIG. 13B: Graphical depiction of the NF-Kb (p65) binding elements in the miR-200c promoter. […] The results are presented as mean±SEM of at least three independent experiments using LSMC isolated from 3 patients.

[4] = test system: CDK2; test: Immunoblotting, protein expression in LSMC; details: Tranilast 200 μM, 48 h, Western blot, P<0.05
Description: (§1) Total protein isolated from LSMC treated with Tranilast (200 μM) at sub-confluence for 48 hrs and from tissues was subjected to immunoblotting as previously described (Chuang et al., “miR-29c induction contributes to downregulation of vascular extracellular matrix proteins by glucocorticoids,” American journal of physiology Cell physiology (2015) 309:C117-25). Specific antibodies generated against CCND1, COL3A1, TGF-β3 (Proteintech Group, Inc., Chicago, Ill.), CDK2, DNMT1 (Santa Cruz Biotechnology, Dallas, Tex.), COL1 (Fitzgerald Industries Intl., Acton, Mass.) and EZH2 (Cell Signaling Technology, Danvers, Mass.) were used to detect specific protein expression. The membranes were also stripped and probed with GAPDH antibody (Proteintech Group, Inc.) serving as loading control.

[5] = test system: EZH2; test: Immunoblotting, protein expression in LSMC; details: Tranilast 200 μM, 48 h, Western blot, P<0.05
Description: as §1

[6] = test system: DNMT1; test: Immunoblotting, protein expression in LSMC; details: Tranilast 200 μM, 48 h, Western blot, P<0.05
Description: as §1

[7] = test system: TGF-β3; test: Immunoblotting, protein expression in LSMC; details: Tranilast 200 μM, 48 h, Western blot, P<0.05
Description: as §1

[8] = test system: CCND1; test: Immunoblotting, protein expression in LSMC; details: Tranilast 200 μM, 48 h, Western blot, P<0.05
Description: as §1

[9] = test system: COL1; test: Immunoblotting, protein expression in LSMC; details: Tranilast 200 μM, 48 h, Western blot, P<0.05
Description: as §1

[10] = test system: COL3A1; test: Immunoblotting, protein expression in LSMC; details: Tranilast 200 μM, 48 h, Western blot, P<0.05
Description: as §1

[11] = test system: miR-200c promoter; test: Methylation-specific PCR in LSMC; details: Tranilast 200 μM, 24 hrs, Me/Me+Un, P<0.05
Description: (§2) LSMC at sub-confluence were treated with Tranilast (200 μM) for 24 hrs and genomic DNA was extracted and treated with bisulfite (EZ DNA Methylation Kit, Zymo Research Corporation, Irvine, Calif.). Since methylated cytosine residues remained unchanged after bisulfite conversion, this approach allows distinguishing DNA sequences which are methylated or unmethylated in specific genomic regions using sequence-specific PCR primers (Li & Dahiya, “MethPrimer: designing primers for methylation PCRs,” Bioinformatics (2002)18:1427-31). The pair of primers used to detect the methylated (Me) sequence of miR-29c promoter were 5′-[…]-3′ (SEQ ID NO:17) and 5′-[…]-3′ (SEQ ID NO:18) and for the unmethylated (Un) sequence of miR-29c promoter were 5′-[…]-3′ (SEQ ID NO:19) and 5′-[…]-3′ (SEQ ID NO:20). The pair of primers used to detect the methylated (Me) sequence of miR-200c promoter were 5′-[…]-3′ (SEQ ID NO:21) and 5′-[…]-3′ (SEQ ID NO:22), and for the unmethylated (Un) sequence of miR-200c promoter were 5′-[…]-3′ (SEQ ID NO:23) and 5′-[…]-3′ (SEQ ID NO:24). DNA amplification was carried out following manufacturer's protocol (HotStarTaq Plus PCR reagent, Qiagen, Valencia, Calif.). The PCR condition was 5 min at 95° C., followed by 40 cycles of amplification at 94° C. for 30 seconds, 30 seconds at 55° C., and 1 min at 72° C. […]

[12] = test system: miR-29c promoter; test: Methylation-specific PCR in LSMC; details: Tranilast 200 μM, 24 hrs, Me/Me+Un, P<0.05
Description: as §2

3′UTR activity of CDK2 (relative luciferase activity, Firefly:Renilla) [1]: suppressed | p65 binding ability in miR-200c promoter [2]: decreased | NF-kB signaling (NF-kB luciferase reporter activity) [3]: Blockade
SMILES: COc1ccc(C=CC(=O)Nc2ccccc2C(=O)O)cc1OC [Tranilast, 2-[[3-(3,4-dimethoxyphenyl)-1-oxo-2-propenyl]amino]benzoic acid]
CDK2 expression, protein level [4]: significantly inhibited | EZH2 expression, protein level [5]: significantly inhibited | DNMT1 expression, protein level [6]: significantly inhibited | TGF-β3 expression, protein level [7]: significantly inhibited | CCND1 expression, protein level [8]: significantly inhibited | COL1 expression, protein level [9]: significantly inhibited | COL3A1 expression, protein level [10]: significantly inhibited | methylation status in miR-200c promoter [11]: significantly suppressed | methylation status in miR-29c promoter [12]: significantly suppressed
